The source of these data is PMC7180456, “Multitarget Anticancer Agents Based on Histone Deacetylase and Protein Kinase CK2 Inhibitors” (Molecules, 2020).

Like-named read-outs stand apart in the source and are kept apart here.

Assay [1] relates to HCT-116 colon carcinoma cells. The experiment in a line: Cytotoxicity, trypan blue exclusion assay, 24 h. As to conditions: Homo sapiens.
Method: (§1) Walter Berger, Institute of Cancer Research, Vienna Medical University. Human embryonal kidney cells of HEK293 line were obtained from cell culture collection of R.E. Kavetsky Institute of Experimental Pathology, Oncology and Radiobiology, National Academy of Sciences of Ukraine (Kyiv, Ukraine).
(§2) Cells were seeded (5 × 10^5/mL for leukemia cells and 1 × 10^5/mL for carcinoma cells) into 24-well tissue culture plates (Greiner Bio-one, Frickenhausen, Germany) and were permitted to adhere and grow for 24 h before the experiment. Short-term (24 h) cytotoxic effect of antitumor drugs was studied under the Evolution 300 Trino microscope (Delta Optical, Nowe Osiny, Poland) after cell staining with trypan blue dye (0.1%).
(§3) Final concentration of DMSO in cell culture was 0.5% or less.
(§4) All experiments were performed in triplicate and repeated three times. Statistical analysis of data was conducted in GraphPad Prism 7.0 Software (GraphPad Software, Inc.) using Student’s t test. Statistical significance was set at P ≤ 0.05. Evaluation of LC50 values of each compound was done by built-in functions of GraphPad Prism (non-linear regression, curve fit, [Inhibitor] vs. normalized response - Variable slope).
In assay [2] the target is T1, human recombinant HDAC1 (Homo sapiens, UniProt Q13547).
T1 construct: purchased Enzo Life Sciences, Inc
The experiment in a line: HDAC1 inhibition, fluorometric method (Enzo Fluorometric Drug Discovery Assay Kit). Format: biochemical. As to conditions: read-out: Inhibitory activity IC50 on HDAC1. The method, then:
The inhibitory activities of the synthesized compounds were determined against CK2 and HDAC1 and the IC50 values are collected in Table 1. The activity towards human recombinant HDAC1 was tested using a fluorometric method. CK2 inhibitory activity was determined by a radiometric method, using a short peptide ([…]) as a substrate.
15 µL of HDAC1 (0.4 µg/well) or HDAC6 (0.5 µg/well) were incubated at 37 °C for 30 minutes with 10 µL of inhibitor diluted in 5% DMSO and 25 µL of fluorogenic substrate (0.05 µL/well of 5 mM solution). Reactions were stopped with the developer and trichostatin A, diluted in buffer without BSA, and the plate was incubated at 30 °C for 45 min, followed by measuring the fluorescence (Ex. 360 nm, Em. 450 nm, Fluoroskan, Thermo Scientific).

The target of assay [3] is T2, human recombinant CK2α (Homo sapiens, UniProt P68400).
T2 construct: GST; made in house; host or cells: bacteria
Briefly: CK2 inhibition, radiometric method with peptide substrate […]. Format: biochemical. The conditions noted are these: radiometric method, 20 µM ATP; read-out: Inhibitory activity IC50 on CK2. The method, then:
The activity towards human recombinant HDAC1 was tested using a fluorometric method. CK2 inhibitory activity was determined by a radiometric method, using a short peptide ([…]) as a substrate.
Recombinant human protein kinase GST-CK2 was produced in bacteria and purified as described elsewhere. […] The reaction buffer contained 20 µM [γ-32P] ATP (specific radioactivity 300–1000 cpm/pmol), 15 mM Mg^2+, 20 mM Tris–HCl pH 7.5, and 6 mM 2-mercaptoethanol. 10 µL of the assay mixture was spotted onto a square (1 cm/1 cm) of Whatman P81 paper and allowed to dry. Each square was immersed in cold 0.5% phosphoric acid, and washed three times during 10 min, allowed to dry and transferred into a vessel containing Opti-Phase liquid (scintillation solution) and radioactivity was quantified using a scintillation counter (MicroBeta, Perkin Elmer) by Cerenkov counting. All experiments were performed in triplicate. IC50 values were calculated using GraphPad Prism (version 4.0) software.

Assay [4] has as its system breast adenocarcinoma cells of MCF-7 line. Briefly: Cytotoxicity, trypan blue exclusion assay, 24 h. As to conditions: Homo sapiens.
Method: as §1, §2, §3, §4
Assay [5] deals with Jurkat T-leukemia cells. The experiment in a line: Cell cycle analysis, PI staining, FACS. As to conditions: 30 µM, 24 h. Format: cell-based, human. The method, then:
To reveal potential mechanisms of cell death induction, selected CK2-HDAC inhibitors were tested in a PI staining assay. […] However, this effect was masked for high doses of DMAT-hydroxamate derivatives (30 µM) due to their strong proapoptotic activity, leading to appearance of > 80% cells in pre-G1 phase (apoptotic). Thus, lower concentrations of 11b–d (2 µM and 5 µM) had to be addressed in order to observe their inhibitory effect on cell cycling. […] As G1/S cell arrest is considered a typical feature of HDAC inhibitors, including SAHA [79], the observed phenomenon is yet another confirmation of HDAC targeting by these novel dual inhibitors in cell culture.
Cell cycle of the analyzed cells was assessed according to protocol described by Walker et al.. After drug treatment, 2 × 10^6 cells were collected, pelleted by spinning at 1,000 rpm, 4 °C for five minutes, resuspended in 1 mL of cold PBS and fixed by adding drop by drop 4 mL of −20 °C absolute ethanol. On the next day, fixed cells were centrifuged again and cell pellets were resuspended in 1 mL of PBS. Then 100 µL of 200 µg/mL DNase-free, RNase A (Invitrogen, USA) was added to cell suspension and incubated at 37 °C for 30 minutes. After this 100 µL of 1 mg/mL propidium iodide was added to samples, which were incubated at room temperature for 5–10 min and then analyzed on FACScan flow cytometer (Becton Dickinson, USA). Cell cycle analysis was carried out using the Cytomation Summit Software v3.1 (Cytomation Inc., USA).

Setting [6] is: HCT-116, 24 h, read-out: LC50 Values of Compounds for Cell Line, HCT-116.
Where [7] appears, read: MCF7, 24 h, read-out: LC50 Values of Compounds for Cell Line, MCF-7.

T1 sequence (Q13547 whole entry): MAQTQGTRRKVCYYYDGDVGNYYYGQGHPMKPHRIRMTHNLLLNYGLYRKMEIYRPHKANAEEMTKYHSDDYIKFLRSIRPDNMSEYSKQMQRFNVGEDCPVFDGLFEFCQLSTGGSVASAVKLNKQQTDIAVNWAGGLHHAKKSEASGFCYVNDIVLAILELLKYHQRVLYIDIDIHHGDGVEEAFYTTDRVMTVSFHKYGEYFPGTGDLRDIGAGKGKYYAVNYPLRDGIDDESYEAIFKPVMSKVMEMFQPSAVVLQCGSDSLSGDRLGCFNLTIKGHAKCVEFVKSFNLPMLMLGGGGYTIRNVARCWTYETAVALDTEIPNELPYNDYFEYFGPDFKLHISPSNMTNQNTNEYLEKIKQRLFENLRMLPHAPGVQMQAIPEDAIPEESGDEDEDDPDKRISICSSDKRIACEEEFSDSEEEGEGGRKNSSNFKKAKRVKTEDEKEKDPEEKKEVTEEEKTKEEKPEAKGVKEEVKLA
T2 sequence (P68400 whole entry): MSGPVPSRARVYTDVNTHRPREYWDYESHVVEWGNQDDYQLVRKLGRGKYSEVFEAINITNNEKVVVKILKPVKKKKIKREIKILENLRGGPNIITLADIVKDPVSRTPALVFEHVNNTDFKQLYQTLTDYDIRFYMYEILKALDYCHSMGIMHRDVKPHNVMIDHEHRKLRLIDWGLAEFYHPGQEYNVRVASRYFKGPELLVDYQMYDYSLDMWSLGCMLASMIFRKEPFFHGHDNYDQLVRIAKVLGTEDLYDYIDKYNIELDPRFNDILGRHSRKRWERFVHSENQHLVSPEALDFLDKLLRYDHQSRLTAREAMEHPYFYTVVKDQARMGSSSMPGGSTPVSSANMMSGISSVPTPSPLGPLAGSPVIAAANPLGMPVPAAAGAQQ

For orientation: IC50 means the concentration that inhibits the measured activity by half. In the case of `CN(C)c1nc2c(Br)c(Br)c(Br)c(Br)c2n1Cc1ccc(C(=O)NO)cc1` [Compound 19, N-Hydroxy-4-((4,5,6,7-tetrabromo-2-(dimethylamino)-1H-benzo[d]imidazol-1-yl)methyl)benzamide], the CC50 in assay [1] (setting [6]) turned out to be 11.3 ± 1.01 µM; in assay [4] (setting [7]), 13.6 ± 0.78 µM. The figures for the IC50 in assay [2] and in assay [3] were 9.45 µM and 7.15 µM, respectively. Further, in assay [5], the “cells in pre-G1 phase (apoptotic)” value is reported as “increased insignificantly”.
For the molecule `CN(C)c1nc2c(Br)c(Br)c(Br)c(Br)c2n1CCc1cn(CCC(=O)NO)nn1` [Compound 7c, N-Hydroxy-3-(4-(2-(4,5,6,7-tetrabromo-2-(dimethylamino)-1H-benzo[d]imidazol-1-yl)ethyl)-1H-1,2,3-triazol-1-yl)propanamide], the CC50 worked out at 16.9 ± 3.9 µM in assay [1] (setting [6]); 4.22 µM in assay [1] (HCT-116, read-out: LC50 values of compounds for cell line, HCT-116); 27.8 ± 6.06 µM in assay [4] (setting [7]); 15.7 µM in assay [4] (MCF7, read-out: LC50 values of compounds for cell line, MCF-7). The values for the IC50 in assay [2] and in assay [3] were 13.3 µM and 12.5 µM, respectively. Also, the “cells in pre-G1 phase (apoptotic)” value in assay [5] is given as “increased insignificantly”.
Turning to `O=C(NO)c1ccc(Cn2nc3c(Br)c(Br)c(Br)c(Br)c3n2)cc1` [Compound 15a, N-Hydroxy-4-((tetrabromo-2H-benzo[d][1,2,3]triazol-2-yl)methyl)benzamide], the CC50 in assay [1] (setting [6]) worked out at 8.67 ± 1.02 µM; in assay [4] (setting [7]), 13.7 ± 2.67 µM. Moreover, the IC50 stood at 8.5 µM in assay [2] and 15 µM in assay [3]. Besides, the “cells in pre-G1 phase (apoptotic)” value in assay [5] is reported as “increased insignificantly”.
